Experimental data: BigSolDB 2.1

NCC(CC(=O)O)c1ccc(Cl)cc1 (configuration not stated)
solubility (mole fraction)
Conditions	273.15 K	278.15 K	283.15 K	288.15 K	293.15 K	298.15 K	303.15 K	308.15 K	313.15 K	318.15 K
in 1,4-dioxane	–	–	–	0.000519	0.000568	0.000632	0.000704	0.000788	0.000888	0.000996
in 2-butanone	0.000439	0.000475	0.000522	0.000579	0.000639	0.000703	0.000792	0.0009	0.00101	0.00112
in DMAc	0.0934	0.0945	0.0957	0.0969	0.0982	0.0995	0.101	0.102	0.104	0.105
in DMF	0.0998	0.101	0.102	0.104	0.106	0.108	0.11	0.112	0.115	0.117
in acetone	0.000228	0.000236	0.000246	0.000258	0.000273	0.000289	0.000305	0.000322	0.00034	0.000358
in ethanol	1.95e-05	2.23e-05	2.58e-05	3e-05	3.4e-05	3.85e-05	4.33e-05	4.86e-05	5.39e-05	5.86e-05
in ethyl acetate	0.00412	0.00419	0.00427	0.00436	0.00446	0.00456	0.00467	0.00476	0.00488	0.00499
in isopropanol	3.16e-05	3.67e-05	4.17e-05	4.74e-05	5.35e-05	5.99e-05	6.67e-05	7.41e-05	8.21e-05	9.04e-05
in methanol	0.000109	0.000116	0.000124	0.000133	0.000143	0.000153	0.000162	0.000173	0.000186	0.000198
in n-butanol	5.73e-05	6.12e-05	6.61e-05	7.11e-05	7.68e-05	8.34e-05	9.06e-05	9.72e-05	0.000104	0.000113
in n-propanol	2.57e-05	3.01e-05	3.47e-05	4.03e-05	4.61e-05	5.35e-05	6.1e-05	6.85e-05	7.63e-05	8.77e-05
in toluene	0.0054	0.00569	0.00601	0.00639	0.00673	0.00709	0.00749	0.0079	0.00831	0.00866
